Laboratory results reported in patent US6723710B2, “Compositions for inhibiting arginase activity” (The Trustees of the University of Pennsylvania, priority 1997, dated 2004).
Entries after “also recorded” stand apart in the source; their conditions may differ.

Key:
[1] = tested on: internal anal sphincter (IAS) smooth muscle; test: NANC nerve-mediated relaxation of IAS smooth muscle strips by electrical field stimulation; set-up: species or system opossum (Didelphis virginiana); details: for decrease in basal IAS tension after ABHA: 1×10^−4 molar
Text: The entire anal canal was isolated carefully by dissection and transferred to a dissecting tray containing oxygenated (95% O2 plus 5% CO2) Krebs' solution. The composition of the Krebs' solution was as follows (in millimolar): NaCl, 118.07; KCl 4.69; […] MgSO4, 1.16; […] NaHCO3, 25 and glucose (Pufahl et al., 1995, Biochemistry 34:1930-1941; […] et al., 1993, Biochem. Biophys. Res. Commun. 196:1558-1565). The anal canal was cleaned of extraneous connective tissue and blood vessels. Following this, the anal canal was opened by making an incision along the longitudinal axis, and was pinned flat with the mucosal side facing up. The mucosa and submucosa were removed by sharp dissection. Circular smooth muscle strips were obtained from the whole circumference of the anal canal and divided into two equal strips (about 1×8 millimeters). Both ends of the muscle strips were secured with silk sutures (4-0: Ethicon Inc., Sommerville, N.J.) and used for the measurement of isometric tension. […] One end of each muscle strip was fixed to the bottom of the muscle bath with a tissue holder and the other end was attached to an isometric force transducer (model FT03; Grass Instruments Co., Quincy, Mass.) in order to measure isometric tension. Smooth muscle tension was recorded using a […] recorder (model […]; Beckman Instruments, Schiller Park, Ill.). […] J. Physiol. 255:[…]-[…]). Only those smooth muscle strips that developed spontaneous and steady tension and relaxed in response to electrical field stimulation (EFS) were used. EFS was delivered, via a pair of platinum wires, from a Grass stimulator (Model S88; Grass Instruments Co., Quincy, Mass.) connected in series to a Med-Lab […] (Med-Lab Instruments, Loveland, Colo.). […] These parameters of EFS are known to cause relaxation of IAS smooth muscle by selective activation of NANC myenteric neurons. Neurally-mediated relaxation of IAS smooth muscle strips was quantified in response to different frequencies of EFS. […] To determine the influence of arginase on NANC nerve-mediated relaxation of IAS, the effects of different doses of arginase on relaxation were first determined. […] The effectiveness of arginase inhibitors (L-OH-Arg and ABHA) on arginase-induced attenuation of EFS-induced IAS relaxation was then tested. Optimal doses of arginase and L-OH-Arg in IAS have been reported ([…] and […]. Pharmacol. Exp. Ther. 282:378-384). In order to determine the selectivity of arginase inhibitors in IAS, their effects on IAS relaxation suppressed by the NO synthase inhibitor L-NNA ([…]) were tested. […] To examine the physiological relevance of arginase inhibitors in IAS relaxation, the influence of selected concentrations of arginase inhibitors on EFS-induced IAS relaxation was examined. […] Each smooth muscle strip served as its own control. […] The results are expressed as means±standard error.

brain arginase activity = test: arginase activity in brain homogenate; format: biochemical, opossum
Text: Tissue samples of the opossum internal anal sphincter muscle (IAS), adjoining rectal tissue, liver, and brain were homogenized using an ULTRATURRAX™ tissue homogenizer (Tekamr, Cincinnati, Ohio) in a solution comprising 10 millimolar Tris-HCl, 150 millimolar KCl, and 25 millimolar MnCl2, at pH 7.4. The homogenates were dialyzed overnight against the same solution. Dialyzed homogenates were centrifuged to remove insoluble material and concentrated with Amicon CENTRICON™ 30 microconcentrators to yield stock protein preparations having protein concentrations of 2.4 milligrams per milliliter for IAS smooth muscle, 3.6 milligrams per milliliter for rectal smooth muscle, 3 milligrams per milliliter for brain, and 17.5 milligrams per milliliter for liver. Protein concentrations were estimated with the Pierce Coomassie Protein Reagent kit using bovine serum albumin as a standard.
Arginase activity in tissue homogenates was evaluated using the radioactive L-[guanidino^14C]arginine assay of Rüegg and Russell (1980, Anal. Biochem. 102:206-212). Assays were performed using a solution comprising 100 millimolar CHES-NaOH and 0.1 millimolar MnCl2 at pH 9.0. The reactions were initiated by addition of 5 microliters of tissue homogenate to 45 microliters of reaction mixture that contained the CHES buffer, the appropriate concentration of arginine (0.5 to 5 millimolar) and about 5.0×10^4 counts per minute of L-[guanidino-^14C]arginine. IAS, rectal muscle, and brain homogenates were incubated with the assay mixture at room temperature for one hour, and the liver sample was incubated for 5 minutes. […] Urea was separated from non-reacted L-[guanidino-^14C]arginine by treatment with 200 μl of 1:1 v/v slurry of DOWEX™ 50W-X8 in water, and quantitated by adding 200 microliters of the supernatant from the DOWEX™ treatment to 3 milliliters of LIQUISCENT™ (National Diagnostics) for liquid scintillation counting in a Beckman LS 5000CE counter. The data were analyzed using double-reciprocal plots of the initial velocity measurements; standard errors were determined by regression analysis. […]

rat liver arginase = target: T1, rat liver arginase (Rattus norvegicus, UniProt P07824); test: [14C-guanidino]-arginine arginase activity assay (Example 2); format: biochemical; details: 100 millimolar CHES, pH 9.0, 1 millimolar arginine; read-out: IC50 for inhibition of arginase
T1 sequence (P07824 1-323): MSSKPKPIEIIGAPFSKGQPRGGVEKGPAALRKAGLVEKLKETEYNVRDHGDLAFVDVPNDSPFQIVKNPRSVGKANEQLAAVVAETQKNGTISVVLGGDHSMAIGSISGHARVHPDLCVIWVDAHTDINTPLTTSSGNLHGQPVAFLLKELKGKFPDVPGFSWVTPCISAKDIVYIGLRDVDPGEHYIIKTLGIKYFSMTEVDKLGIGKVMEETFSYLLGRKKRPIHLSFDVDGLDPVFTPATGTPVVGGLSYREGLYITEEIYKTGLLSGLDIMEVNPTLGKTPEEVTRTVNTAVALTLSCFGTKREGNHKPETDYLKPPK
Experimental: Arginase activity was assessed using the ^(14C-guanidino)-arginine assay of Rüegg et al. (1980, Anal. Biochem. 102:206-212), as described (Reczkowski et al., 1994, Arch. Biochem. Biophys. 312:31-37). […] […] et al., 1994, Biochem. Biophys. Res.

N[C@@H](CCCCB(O)O)C(=O)O [compound 7, 2(S)-amino-6-boronohexanoic acid]
decrease in basal IAS tension after ABHA ([1]; 0.5 Hertz EFS): 56.5±7.0% | decrease in basal IAS tension after ABHA ([1]; 1 Hertz EFS): 73.6±3.5% | effect on arginase-suppressed EFS-induced IAS relaxation ([1]; exogenous arginase, L-HO-Arg 1×10^−4 molar, listed as ABHA): reversal | augmentation of NANC nerve-mediated IAS relaxation by EFS ([1]; lower frequencies of EFS, listed as ABHA): significant and concentration-dependent augmentation | reversal of L-NNA-suppressed IAS relaxation ([1]; with L-NNA, L-HO-Arg and ABHA 3×10^−4 molar): did not cause any reversal; also recorded: no effect | Ki (brain arginase activity; arginine fixed at Km, assuming competitive inhibition, read-out: estimated Ki, brain arginase activity): 18 nM | times more potent than L-HO-Arg, brain (brain arginase activity; brain homogenate): 800 times | IC50 (rat liver arginase): 800 nM
